The numbers were not newly measured in patent publication US20250186347A1 (priority 2025, published 2025), which cites them from elsewhere.

A word on the MIC: it is the lowest concentration that inhibits growth of the organism.

SMILES strings stand for the structures.

The subject of the data set is E. faecalis ampicillin-resistant strains. The following applies: reports.

Consider `CC1(C)S[C@@H]2[C@H](NC(=O)[C@H](N)c3ccccc3)C(=O)N2[C@H]1C(=O)O` [ampicillin], for which the minimal inhibitory concentration (MIC) is 4 to 8 µg/mL.
